# Laboratory results taken from PubChem BioAssay (NCI).
#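 Exposure lasted 48 hours, with cells grown in 96-well plates and compounds tested at five concentrations. Abbreviation: GI50, concentration required for 50% inhibition of growth. TGI: concentration producing complete growth inhibition.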
# How the values were obtained:
# Assay in all cases: NCI-60 cell line screen, 48 h
# KM20L2 colon = test system: KM20L2 colon
# XF 498 CNS = test system: XF 498 CNS
# DLD-1 colon = test system: DLD-1 colon
# SNB-78 CNS = test system: SNB-78 CNS
# DMS 273 small cell lung = test system: DMS 273 small cell lung
# M19-MEL melanoma = test system: M19-MEL melanoma
# RXF-631 renal = test system: RXF-631 renal
# HOP-18 NSCLC = test system: HOP-18 NSCLC
# MDA-N = test system: MDA-N
Compound,TGI (KM20L2 colon) [µM],TGI (XF 498 CNS) [µM],TGI (DLD-1 colon) [µM],TGI (SNB-78 CNS) [µM],TGI (DMS 273 small cell lung) [µM],TGI (M19-MEL melanoma) [µM],TGI (RXF-631 renal) [µM],GI50 (KM20L2 colon) [µM],GI50 (DLD-1 colon) [µM],GI50 (HOP-18 NSCLC) [µM],TGI (HOP-18 NSCLC) [µM],GI50 (M19-MEL melanoma) [µM],TGI (MDA-N) [µM]
CN1CCN(c2nc(N)c(Br)c(Cl)n2)CC1,> 100,> 100,> 100,> 100,> 100,> 100,–,–,–,–,–,–,–
CC(=O)CC(=O)Nc1ccccc1C(F)(F)F,> 100,> 100,> 100,> 100,–,> 100,> 100,–,–,–,–,–,–
CC(=O)[CH-]C(=O)c1ccccc1.CC(=O)[CH-]C(=O)c1ccccc1.CC(=O)[CH-]C(=O)c1ccccc1.[Ga+3],42.6,–,53.6,–,–,30.5,–,18.5,16.6,18,61.5,13.4,–
Cc1ccc(Nc2nc(-c3ccc(-c4ccc([N+](=O)[O-])cc4)o3)cs2)cc1,> 100,–,> 100,> 100,> 100,> 100,–,–,–,–,–,–,–
C=CCSC(C)=O,–,–,–,–,–,–,–,–,–,–,–,–,> 100
COc1ccc(C(=O)C(C(=O)C(=O)NCCCNC(=O)C(=O)C(C(=O)c2ccc(OC)cc2)c2ccc(OC)cc2)c2ccc(OC)cc2)cc1 (centres undefined),> 100,> 100,> 100,> 100,> 100,–,–,–,–,–,> 100,–,–
Cc1cc(Br)ccc1N=Nc1c(C)nn(-c2ccccc2)c1-c1ccccc1,–,> 100,> 100,> 100,> 100,> 100,–,–,–,–,> 100,–,–
O=C(NC1=C(Cl)C(=O)c2ccccc2C1=O)C(=O)C(C(=O)c1ccc2ccccc2c1)C1OC(=O)c2ccccc21 (centres undefined),18.6,–,16.9,15.4,–,0.856,–,–,–,–,–,–,–
CCN(CC)c1ccc(C2N3CCCCC3[C@@H]3c4[nH]c5ccccc5c4CCN23)cc1 (some centres undefined),> 100,41,> 100,61.3,> 100,57.1,–,–,–,–,> 100,–,–
CN(C)N=Nc1ccc(S(N)(=O)=O)cc1,> 100,> 100,> 100,–,> 100,> 100,–,–,–,–,> 100,–,–
COc1ccc(/C=C/c2ccnc3ccccc23)cc1OC,–,–,–,–,–,–,–,–,–,–,–,–,27
CC12CCc3ccccc3C1=NNC(=O)C2 (centres undefined),> 100,> 100,> 100,> 100,> 100,> 100,–,–,–,–,> 100,–,–
CC1=C2C=CC(=O)C[C@@]2(C)CCC1,–,> 100,> 100,> 100,> 100,> 100,> 100,–,–,–,–,–,–
COc1cc(O)c(C(=O)/C=C/c2ccc(OC)c(OCc3ccccc3)c2)c(OC)c1,> 100,> 100,> 100,6.52,1.76,> 100,–,–,–,–,> 100,–,–
NC(=O)c1ncn(C2OC(CO)C(O)C2O)c1O (centres undefined),> 100,> 100,–,> 100,–,> 100,> 100,–,–,–,> 100,–,–
CC(=O)OCC1OC(n2c(=S)n(-c3ccccc3)c(=O)c3cc(Br)ccc32)C(OC(C)=O)C1OC(C)=O (centres undefined),> 100,> 100,> 100,> 100,> 100,> 100,–,–,–,–,> 100,–,–
O=C1[C@@H]2C(c3ccccc3[N+](=O)[O-])=NO[C@@H]2C(=O)N1c1ccc(Cc2ccc(N3C(=O)[C@H]4C(c5ccccc5[N+](=O)[O-])=NO[C@H]4C3=O)cc2)cc1,> 100,–,> 100,> 100,–,–,–,–,–,–,> 100,–,–
CCC(c1ccccc1)c1cc(C(C)(C)C)cc(C(C)(C)C)c1O (centres undefined),–,–,–,–,–,–,–,–,–,–,–,–,30.9

Compound,TGI (KM20L2 colon) [µM],TGI (XF 498 CNS) [µM],TGI (DLD-1 colon) [µM],TGI (SNB-78 CNS) [µM],TGI (DMS 273 small cell lung) [µM],TGI (M19-MEL melanoma) [µM],TGI (RXF-631 renal) [µM],GI50 (KM20L2 colon) [µM],GI50 (DLD-1 colon) [µM],GI50 (HOP-18 NSCLC) [µM],TGI (HOP-18 NSCLC) [µM],GI50 (M19-MEL melanoma) [µM],TGI (MDA-N) [µM]
Cc1c(-c2ccccn2)ccc2ccccc12,–,–,–,–,–,–,–,–,–,–,–,–,> 100
O=C(N/C(=C\c1ccc(/C=C(\NC(=O)c2ccccc2)c2nc3c(O)nc(S)nc3[nH]2)cc1)c1nc2c(O)nc(S)nc2[nH]1)c1ccccc1,> 100,> 100,> 100,> 100,> 100,–,> 100,–,–,–,> 100,–,–
N#Cc1ccc(C2SCc3nc4ccccc4n32)cc1 (centres undefined),> 100,> 100,> 100,> 100,> 100,> 100,–,–,–,–,> 100,–,–
CCN(CC)C(=S)SS(C)(=O)=O,–,–,33.3,43.7,36,30.6,–,–,–,–,> 100,–,–
O=C1C=CC(=O)c2c1nc(CBr)[nH]c2=O,–,–,–,–,–,–,–,–,–,–,–,–,> 100
Cc1[nH]c2cc([N+](=O)[O-])ccc2c1[N+](=O)[O-],> 100,50,> 100,–,–,–,–,–,–,–,–,–,–
CCOC(=O)C1C(=O)CC(=O)C2CCCCC21 (centres undefined),–,> 100,> 100,> 100,> 100,–,> 100,–,–,–,–,–,–
COC(=O)[C@@]12C3=NO[C@]1(C(=O)OC)C(O[Si](C)(C)C(C)(C)C)[C@@H](OC(C)=O)[C@@H](OC(C)=O)[C@@H]2[C@@H](OCc1ccccc1)CC3 (some centres undefined),> 100,> 100,> 100,> 100,> 100,> 100,–,–,–,–,> 100,–,–
COc1ccc2c(c1)[n+]([O-])c(-c1ccccc1Cl)c(N)[n+]2[O-],> 100,–,> 100,> 100,> 100,> 100,> 100,–,–,–,> 100,–,–
CC(=O)Nc1ccc(/C=c2\sc3nnc(-c4cccnc4)n3c2=O)cc1,38.6,–,40.7,> 100,68.5,37.4,55.2,–,–,–,55.6,–,–
Cc1ccc(S(=O)(=O)NNS(C)(=O)=O)cc1,> 100,–,> 100,–,> 100,> 100,–,–,–,–,–,–,–
CC1(C)C(=O)/C=C\C(=O)C(C)(C)C(=O)/C=C\C(=O)C(C)(C)C2=CC=C(O2)C(C)(C)C(=O)/C=C\C1=O,28.3,3.86,3.61,15.7,10.1,13.6,> 52.7,–,–,–,37.1,–,19.1
CSc1nc(SC)c2c(C)cn(COCCOC(=O)c3ccccc3)c2n1,–,–,–,–,–,–,–,–,–,–,–,–,> 100
N=C(CC(=O)Nc1ccccn1)c1ccccc1,–,–,–,–,–,–,–,–,–,–,–,–,> 100
Cc1ccc(S(=O)(=O)C2CC2(Cl)Cl)cc1 (centres undefined),> 100,45.2,61.1,–,> 100,67.7,50.8,–,–,–,–,–,–
NS(=O)(=O)c1ccc(N=Nc2c[nH]c(=O)c(O)c2)cc1,–,–,–,–,–,–,–,–,–,–,–,–,> 100
CCCCOC(=O)NC(=O)c1cn(CCCOC(=O)CCCCCCCCC(=O)OCCCn2cc(C(=O)NC(=O)OCCCC)c(=O)n(C)c2=O)c(=O)n(C)c1=O,> 100,> 100,> 100,> 100,> 100,> 100,> 100,–,–,–,–,–,–
CCN(CC)c1c(C)nnn1C1OC(COC(C)=O)C(OC(C)=O)C(OC(C)=O)C1OC(C)=O (centres undefined),> 100,–,> 100,> 100,–,> 100,> 100,–,–,–,> 100,–,–
